Patent US7781398B2, “Drug comprising synthetic peptide analogs for the treatment of cancer” (Dabur Pharma Ltd., priority 2002, dated 2010)
Non-standard residues stand in square brackets, D forms with d. Residues, ends and D or L forms follow the SMILES beside them. No end group written: not given here. Ac5c = NC1(C(=O)O)CCCC1; Aib = CC(C)(N)C(=O)O

Key:
Format in all cases: cell-based
[1] = system: intracellular cAMP in MCF7 breast cancer cells; assay: cAMP levels in breast cancer cells (sandwich ELISA); settings: 30 minutes, final peptide concentration 10^−9M, Forskolin 1 micromolar
Method: Enzyme linked sandwich immunosorbent assay was carried out on breast cancer cells (MCF7) to study the modulation in levels of cAMP upon treatment with the peptides and their combinations. The cells were cultured in sterile 6 well plates at a density of 0.5×10^6/well in DMEM supplemented with 10% FCS, and allowed to adhere overnight.
The cells were co-incubated with Forskolin at a concentration of 1 micromolar. The cells were scraped using a cell scraper and pelleted. The cell pellet was suspended in appropriate resuspension buffer (50 mM Tris, containing EDTA, 0.2 mM phenyl methyl sulfonyl fluoride (PMSF), 1 ug/ml pepstatin and 0.5 microgram/ml leupeptin adjusted to pH 7.4). The cell extracts were transferred to microcentrifuge tubes and centrifuged for 5 minutes at 10000×g. cAMP standards ranging in concentrations from 200 units/ml to 0 units/ml were prepared immediately prior to the start of the assay. Fluorescein isothiocyanate (FITC) conjugated monoclonal antibody directed to cAMP was added to microtitre wells precoated with primary monoclonal antibody against cAMP. 50 ul of sample lysates, and cAMP standards were added in duplicates in the microtitre wells containing both the monoclonals to cAMP. The wells were incubated at room temperature for 2 hours. The microtitre wells were washed three times with appropriate wash buffer (PBS 50 mM, with Tween 0.5%) and the appropriate dilution of anti FITC horse radish peroxidase conjugate was added and incubated for 30 minutes. The microtitre wells were washed thrice with the wash buffer and subsequently with distilled water. Tetra-methylbenzidine was added to each well and incubated in dark for 30 minutes at room temperature. The absorbance was measured in each well at dual wavelength of 450/595 nm within 30 minutes of the addition of stop solution and the amount of cAMP present in the cell samples calculated.

[2] = system: tyrosine phosphatase in MiaPaCa2 cells; assay: Tyrosine phosphatase activity in pancreatic cancer cells (colorimetric); settings: 30 minutes, final peptide concentration 10^−9M
Method: The quantitation of tyrosine phosphatase was carried out colorimetrically by using their synthetic biotin labeled tyrosine phosphorylated peptide substrates. The enzyme reaction was quenched by the addition of a specific inhibitor, and the phosphorylated and dephosphorylated substrate is immobilized by binding to the streptavidin coated microtitre plate. The fraction of the unmetabolized substrate is determined by its anti phospho tyrosine antibody directly conjugated to peroxidase.
The cells were cultured in sterile 6 well plates at a density of 0.5×10^6/well in DMEM supplemented with 10% FCS, and allowed to adhere overnight. The medium was changed to DMEM. The cells were treated with appropriate concentrations of the peptide and their combinations shown in Table 6, for 30 minutes, such that in each case the final peptide concentration was 10^−9M.
The cells were lysed in appropriate lysis buffer (50 mM Tris, containing EDTA, 0.2 mM PMSF, 1 microgram/microliter pepstatin and 0.5 microgram/microliter leupeptin adjusted to pH 7.4). […]
The quantitation of phosphatase enzyme activity was performed with 30 microliter of specific substrates and the reaction was quenched with the addition of 100 micromolar sodium orthvanadate. […] After 3 washings, 100 microliter of the substrate POD was added to the wells, and the absorbance was read at 405 nm.

Caspase-3 = Caspase-3 induction (DEVD-pNA colorimetric) in cancer cells; settings: each peptide 10^−8M, 6 hours
Method: PA-1 (Ovary), MDA.MB.453 (breast), HT29 (colon) and A549 (lung) cancer cells were cultured in 25 cm^2 tissue culture flasks at 37° C. in a humidified incubator containing 5% CO2. When cultures reached pre-confluence individual peptides of the combination and different combinations of the peptides as shown in Table 8 were added to different flasks such that the final concentration of each peptide in the flask was 10^−8M. The untreated flasks served as controls. The cells were incubated with drug for 6 hours.
After 6 hours of incubation cells were collected by trypsin treatment followed by centrifugation at 2000 r.p.m. for 10 minutes. The supernatant was gently removed and discarded and Lysis Buffer was added to the cell pellet (25 microliter of lysis buffer per 1×10^4 cells I a 15 ml conical tube) and incubated on ice for 10 minutes and centrifuged at 10,000-×g for 1 minute. 50 microliter of supernatant (cell lysate) was transferred to the wells of a 96-well plate. 2× Reaction buffer was prepared by adding 10 microliter of fresh DTT stock per 1 ml of 2× Reaction Buffer. 50 micro liter 2× Reaction Buffer was added to each well followed by addition of 5 micro liter of Caspase-3 colorimetric substrate (DEVD-pNA). The plate was incubated for 1-2 hours at 37° C. Following incubation the plate was read on a microplate reader at 405 nm-wavelength light the level of caspase enzymatic activity in the cell lys ate was directly proportional to the color reaction. The induction of caspase activity by the subcombinations was calculated as a percentage of control using the formula [(Sample OD/Control OD)−1]*100.

CC(C)C[C@H](NC(=O)[C@H](Cc1c[nH]cn1)NC(=O)C(C)(C)NC(=O)[C@@H](NC(=O)[C@H](C)NC(=O)[C@H](Cc1c[nH]c2ccccc12)NC(=O)[C@H](CCC(N)=O)NC(=O)[C@H](N)Cc1ccccc1)C(C)C)C(N)=O [SEQ ID NO: 2, D-Phe-Gln-Trp-Ala-Val-Aib-His-Leu-NH2] (H-[dF]QWAV[Aib]HL-NH2; N-terminus assumed)
cAMP (% Of Control) [1]: 15.4 ± 3.0 % Of Control

CC(C)C[C@H](NC(=O)[C@@H](Cc1c[nH]c2ccccc12)NC(=O)[C@H](Cc1ccccc1)NC(=O)[C@@H](Cc1c[nH]c2ccccc12)NC(=O)[C@H](CCC(N)=O)NC(=O)[C@@H](Cc1ccccc1)NC(=O)[C@@H]1CCCN1C(=O)[C@H](CCCCN)NC(=O)[C@@H]1CCCN1C(=O)[C@H](N)CCCNC(=N)N)C(=O)NC1(C(N)=O)CCCC1 [SEQ ID NO: 3, D-Arg-Pro-Lys-Pro-D-Phe-Gln-D-Trp-Phe-D-Trp-Leu-Ac5c-NH2] (H-[dR]PKP[dF]Q[dW]F[dW]L[Ac5c]-NH2; N-terminus assumed)
cAMP (% Of Control) [1]: 13.3 ± 4.0 % Of Control | % Induction of Tyrosine phosphatase [2]: 14.3 ± 3.5% | Caspase-3 % INDUCTION (Caspase-3; A549): 38.5 ± 3.8% | Caspase-3 % INDUCTION (Caspase-3; HT29): 28.4 ± 2.4% | Caspase-3 % INDUCTION (Caspase-3; MDA.MB453): 22.8 ± 3.8% | Caspase-3 % INDUCTION (Caspase-3; PA-1): 46.2 ± 2.1%

C[C@@H](O)[C@H](NC(=O)[C@H]1NC(=O)[C@H]([C@@H](C)O)NC(=O)[C@H](CCCN)NC(=O)[C@@H](Cc2c[nH]c3ccccc23)NC(=O)[C@H](Cc2ccc(O)cc2)NC(=O)[C@@H](NC(=O)[C@H](N)Cc2ccccc2)CSSC1(C)C)C(N)=O [SEQ ID NO: 4, D-Phe-Cys-Tyr-D-Trp-Orn-Thr-Pen-Thr-NH2]
cAMP (% Of Control) [1]: 12.9 ± 5.0 % Of Control | % Induction of Tyrosine phosphatase [2]: 15.6 ± 4.5% | Caspase-3 % INDUCTION (Caspase-3; A549): 28.4 ± 2.8% | Caspase-3 % INDUCTION (Caspase-3; HT29): 18.6 ± 1.9% | Caspase-3 % INDUCTION (Caspase-3; MDA.MB453): 18.9 ± 1.0% | Caspase-3 % INDUCTION (Caspase-3; PA-1): 34.8 ± 1.3%

LMYPTYLK-OH [SEQ ID NO: 1, Leu-Met-Tyr-Pro-Thr-Tyr-Leu-Lys-OH]
cAMP (% Of Control) [1]: 25.2 ± 4.5 % Of Control
